Data on two molecules can be found in patent US7198910B1, “Nucleic acid encoding melanin-concentrating hormone receptor” (Merck & Co., Inc., priority 1999, dated 2007).

For assay [1], the system named is endogenous Xenopus receptor. As to the kind of experiment: Melanophore pigment aggregation control, endogenous melatonin response. In kind it is cell-based, Xenopus laevis. Particulars: stimulating the endogenous Xenopus receptor. The protocol: (§1) For Gi-coupled responses, cell monolayers plated in 96-well microtiter plates were incubated in the presence of 100 μl/well of 70% L-15 media containing 2% fibroblast-conditioned growth medium, 2 mM glutamine, 100 μg/ml streptomycin, 100 units/ml penicillin and 15 mM HEPES, pH 7.3, for 15 minutes in readings at 600 nm were determined, followed by the addition of ligands. After a 1.5 hour incubation in the dark at room temperature final absorbances were determined. Absorbance readings were converted to transmission values to quantitate pigment dispersion using the following formula: 1−Tf/Ti, where Ti=the initial transmission at 600 nm and Tf=the final transmission at 600 nm.
(§2) The Xenopus melanophore system (Daniolos, et al., 1992. Pigment Cell Res. 3, 38–43) is based on the dispersion and aggregation of intracellular pigment granules in response to changes in intracellular second messenger molecules. Agonist activation of a recombinant Gs- or Gq-coupled receptor expressed heterologously in melanophores leads to pigment dispersion. […] Changes in the melanophore pigmentation show a dose-dependent correlation with the level of specific receptor activation, and can be quantified by the change in absorbance at 600 nm between the nonactivated and agonist-activated cells (Daniolos, et al., 1992. Pigment Cell Res. 3, 38–43). […]

For assay [2], the system named is endogenous melanophore thrombin receptor. As to the kind of experiment: Pigment aggregation in mock (non-receptor) transfected melanophores. The format is cell-based, Xenopus laevis. As to conditions: represents activation of endogenous thrombin receptor. The protocol:
as §1, §2

Consider `COc1ccc2[nH]cc(CCNC(C)=O)c2c1` [melatonin], for which the “Aggregation response (control)” value in assay [1] is “positive aggregation response”. Take thrombin: in assay [2], the “Pigment aggregation response in mock (non-receptor) transfected melanophores” value is “detected”.
